Test results: the supplement of paper PMC10307832

Experiments:
Experiment in all cases: relative viability (nuclei count vs DMSO), 5 days (fraction); higher = more cells survive
[1] = test system: NCI-H1623
How it was run: (§1)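 The day after seeding in 1536-well plates, lung cancer cell lines were treated by pin tool with a single drug, or with a fixed anchor-drug dose together with five library-drug doses (not always all listed) in √10 steps. After 5 days, a combined fix-and-stain solution (final 0.05% Triton X-100, 1% formaldehyde, 1 ug/ml Hoechst) was added. Nuclei counted on 4× images gave relative viability as treated counts over vehicle counts, reported as the median of duplicate plates.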

[2] = test system: SK-MES-1
How it was run: as §1

[3] = test system: ChaGo-K-1
How it was run: as §1

[4] = test system: NCI-H1651
How it was run: as §1

[5] = test system: NCI-H522
How it was run: as §1

[6] = test system: NCI-H1648
How it was run: as §1

CC1(C)CCC(c2ccc(Cl)cc2)=C(CN2CCN(c3ccc(C(=O)NS(=O)(=O)c4ccc(N[C@H](CCN5CCOCC5)CSc5ccccc5)c(S(=O)(=O)C(F)(F)F)c4)cc3)CC2)C1 [Navitoclax] + COc1cccc2cc(-c3nc([C@H]4CC[C@H](C(=O)O)CC4)n4ncnc(N)c34)[nH]c12 [OSI-027] (partner 0.5 µM)
relative viability ([1]; first compound 0.005 µM): 0.419
relative viability ([1]; first compound 0.01581 µM): 0.376
relative viability ([1]; first compound 0.05 µM): 0.369
relative viability ([1]; first compound 0.1581 µM): 0.439
relative viability ([1]; first compound 0.5 µM): 0.373
relative viability ([2]; first compound 0.005 µM): 0.624
relative viability ([2]; first compound 0.01581 µM): 0.681
relative viability ([2]; first compound 0.05 µM): 0.525
relative viability ([2]; first compound 0.1581 µM): 0.579
relative viability ([2]; first compound 0.5 µM): 0.63
relative viability ([3]; first compound 0.005 µM): 0.548
relative viability ([3]; first compound 0.01581 µM): 0.536
relative viability ([3]; first compound 0.05 µM): 0.541
relative viability ([3]; first compound 0.1581 µM): 0.55
relative viability ([3]; first compound 0.5 µM): 0.6
relative viability ([4]; first compound 0.005 µM): 0.685
relative viability ([4]; first compound 0.01581 µM): 0.795
relative viability ([4]; first compound 0.05 µM): 0.813
relative viability ([4]; first compound 0.1581 µM): 0.782
relative viability ([4]; first compound 0.5 µM): 0.721
relative viability ([5]; first compound 0.005 µM): 0.605
relative viability ([5]; first compound 0.01581 µM): 0.705
relative viability ([5]; first compound 0.05 µM): 0.702
relative viability ([5]; first compound 0.1581 µM): 0.685
relative viability ([5]; first compound 0.5 µM): 0.747
relative viability ([6]; first compound 0.005 µM): 0.257
relative viability ([6]; first compound 0.01581 µM): 0.256
relative viability ([6]; first compound 0.1581 µM): 0.253
relative viability ([6]; first compound 0.5 µM): 0.306

NC(=O)Nc1cc(-c2cccc(F)c2)sc1C(=O)N[C@H]1CCCNC1 [AZD7762] + COc1cccc2cc(-c3nc([C@H]4CC[C@H](C(=O)O)CC4)n4ncnc(N)c34)[nH]c12 [OSI-027] (partner 0.5 µM)
relative viability ([1]; first compound 0.01 µM): 0.44
relative viability ([1]; first compound 0.03162 µM): 0.464
relative viability ([1]; first compound 0.1 µM): 0.414
relative viability ([1]; first compound 0.3162 µM): 0.424
relative viability ([1]; first compound 1 µM): 0.378
relative viability ([2]; first compound 0.01 µM): 0.672
relative viability ([2]; first compound 0.03162 µM): 0.571
relative viability ([2]; first compound 0.1 µM): 0.52
relative viability ([2]; first compound 0.3162 µM): 0.173
relative viability ([2]; first compound 1 µM): 0.17
relative viability ([3]; first compound 0.01 µM): 0.622
relative viability ([3]; first compound 0.03162 µM): 0.631
relative viability ([3]; first compound 0.1 µM): 0.56
relative viability ([3]; first compound 0.3162 µM): 0.643
relative viability ([3]; first compound 1 µM): 0.554
relative viability ([4]; first compound 0.01 µM): 0.76
relative viability ([4]; first compound 0.03162 µM): 0.637
relative viability ([4]; first compound 0.1 µM): 0.653
relative viability ([4]; first compound 0.3162 µM): 0.637
relative viability ([4]; first compound 1 µM): 0.193
relative viability ([5]; first compound 0.01 µM): 0.711
relative viability ([5]; first compound 0.03162 µM): 0.683
relative viability ([5]; first compound 0.1 µM): 0.696
relative viability ([5]; first compound 0.3162 µM): 0.755
relative viability ([5]; first compound 1 µM): 0.807
relative viability ([6]; first compound 0.01 µM): 0.244
relative viability ([6]; first compound 0.03162 µM): 0.257
relative viability ([6]; first compound 0.1 µM): 0.27
relative viability ([6]; first compound 0.3162 µM): 0.253
relative viability ([6]; first compound 1 µM): 0.294
